{"source": "patent US5185366A", "about": "“Method for treatment and prevention of diseases caused by enveloped viruses, including herpes simplex virus types 1 and 2 diseases, using 3,4-dihydroxy-2H-benzopyran-2H-one” (Ohio State University Research Foundation, priority 1990, dated 1993)", "origin": "cited, not measured here", "key": {"hepatitis B virus (HBV)": {"test_system": "hepatitis B virus (HBV)", "conditions": "5-250 μg/mL, Kessler et al.; cited from earlier work"}, "HBV DNA polymerase": {"test_system": "HBV DNA polymerase", "conditions": "5-250 μg/mL, Kessler et al.; cited from earlier work"}}}
{"smiles": "C[C@@H]1[C@H](O)[C@@H](C)/C=C/C=C/C=C/C=C/C=C/C=C/C=C/[C@H](O[C@@H]2O[C@H](C)[C@@H](O)[C@H](N)[C@@H]2O)C[C@@H]2O[C@](O)(C[C@@H](O)C[C@@H](O)[C@H](O)CC[C@@H](O)C[C@@H](O)CC(=O)O[C@H]1C)C[C@H](O)[C@H]2C(=O)O", "note": "[amphotericin B]", "values": [{"measurement": "effect on HBV particle / envelope", "setting": "hepatitis B virus (HBV)", "result": "changes in electron microscopic appearance of the virus, increased penetration of negative stain into the lipid envelope, disruption of the particle"}, {"measurement": "increase in density of HBV", "setting": "hepatitis B virus (HBV)", "result": "1.165 to 1.225", "unit": "g/mL"}, {"measurement": "HBV DNA polymerase activity", "setting": "HBV DNA polymerase", "result": "concentration dependent increase in HBV DNA polymerase activity"}]}
